Laboratory results published in patent publication US11684067B2, “Generation of peroxyformic acid through polyhydric alcohol formate” (priority 2014, dated 2023).
Like-named read-outs stand apart in the source and are kept apart here.

How the values were obtained:
[1] = system: Pseudomonas aeruginosa ATCC 15442; experiment: Bactericidal activity of ester PFA versus POAA, EN 1276, dirty conditions; type: cell-based; settings: 20°C
Excerpt: (§1) Additional Staphylococcus, Enterococcus and Pseudomonas pathogens were used to evaluate the micro efficacy of ester PFA generated according to methods of the present invention in comparison to POAA.

[2] = system: Staphylococcus aureus ATCC 6538; experiment: as above; type: cell-based; settings: 20°C
Excerpt: as §1

[3] = system: Enterococcus hirae ATCC 10541; experiment: as above; type: cell-based; settings: 20°C
Excerpt: as §1

[4] = Stability of PFA in use solution in the presence of soils, iodometric titration; type: physicochemical; settings: 500 ppm PFA in 500 ppm hard water with soil load, ambient; FIG. 22
Method: To 200 g of 500 ppm hard water containing individual soil load at the desired concentration, was added PFA stock solution to target PFA concentration of 500 ppm. The resulting solution was stored under ambient conditions, and the level of PFA was monitored by iodometric titration at the specific time point.

[5] = system: Bacillus subitilisATCC 19659; experiment: Sporicidal activity of ester PFA versus POAA (Example 21); type: cell-based, Bacillus subtilis; settings: for Average CFU/mL / Log10 Growth / Log10 Reduction: 20°C, dirty
Excerpt: Bacillus pathogens were used to evaluate the micro efficacy of ester PFA generated according to methods of the present invention in comparison to POAA.

[6] = Laundry disinfection efficacy, EPA protocol on 100% cotton carriers (Table 38); type: cell-based; settings: pH 7.7, 500 ppm hard water; for Log survivors (CFU/carrier) / Log reduction: 18 ppm, 40° C., 5 minute exposure; for Log survivors (CFU/carrier): cotton carriers; for Log reduction: vs water control
Method: The microbial efficacy of peroxyformic acid was also tested following the EPA protocol on 100% cotton carriers against a water control. The test conditions were pH 7.7, 500 ppm hard water, 40° C. and 5 minute exposure time. In comparison, the performance of peracetic acid was also tested under the same conditions.

[7] = system: Bacillus subtilis ATCC 19659; experiment: Sporicidal activity of ester PFA, dirty conditions (Example 20); type: cell-based; settings: 5 minutes
Excerpt: (§2) Various Bacillus and Aspergillus pathogens were used to evaluate the micro efficacy of ester PFA generated according to methods of the present invention.

[8] = system: Bacillus subtilis ATCC 6633; experiment: as above; type: cell-based; settings: 5 minutes
Excerpt: as §2

[9] = system: P. aeruginosa ATCC 15442 biofilm; experiment: Biofilm disinfectant efficacy, CDC Biofilm Reactor, Single Tube Method (ASTM E2562-12, E2871-12); type: cell-based, Pseudomonas aeruginosa
Method: P. aeruginosa ATCC 15442 biofilm was grown on the surface of 24 polycarbonate coupons following ASTM method E2562-12: Standard Test Method for Quantification of Pseudomonas aeruginosa Biofilm Grown with High Shear and Continuous Flow using CDC Biofilm Reactor. After 48 hours of biofilm establishment, the coupons were removed from the reactor and placed into individual centrifuge tubes. Three coupons per test substance were tested for disinfectant efficacy using ASTM method E2871-12: Standard Test Method for Evaluating Disinfectant Efficacy against Pseudomonas aeruginosa Biofilm Grown in CDC Biofilm Reactor using Single Tube Method. Each coupon was exposed to 4 mL of chemistry for an exposure time of 3 hours. […] This was followed with a series of vortexing and sonicating steps to remove any biofilm from the coupon surface into the solution for plating and enumeration.
P. aeruginosa ATCC 15442 biofilm was grown on the surface of 24 polycarbonate coupons following ASTM method E2562-12: Standard Test Method for Quantification of Pseudomonas aeruginosa Biofilm Grown with High Shear and Continuous Flow using CDC Biofilm Reactor. After 48 hours of biofilm establishment, the coupons were removed from the reactor and placed into individual centrifuge tubes. […]

Various pathogens = type: cell-based
[10] = 20 ppm PFA pH 6.61 / 24.8 ppm POAA pH 6.73, 5 minutes
[11] = 30 ppm PFA pH 6.74 / 37.6 ppm POAA pH 6.90, 5 minutes
[12] = 50 ppm PFA pH 6.60 / 62.4 ppm POAA pH 6.98, 5 minutes
[13] = 300 ppm PFA pH 6.84 / 368 ppm POAA pH 6.73 (molar equivalent), 5 minutes
[14] = 300 ppm PFA pH 6.84 / 368 ppm POAA pH 6.73 (molar equivalent), 10 minutes
[15] = 400 ppm PFA pH 7.19 / 490 ppm POAA pH 6.78 (molar equivalent), 5 minutes
[16] = 400 ppm PFA pH 7.19 / 490 ppm POAA pH 6.78 (molar equivalent), 10 minutes
[17] = Klebsiella pneumoniae ATCC 4352
[18] = Staphylococcus aureus ATCC 6538

Compound: O=COO [PFA, peroxyformic acid]
- Average CFU/mL [1, 10]: <140 CFU/mL
- Log10 Growth [1, 10]: <2.15 Log10
- Average CFU/mL [1, 11]: <140 CFU/mL
- Log10 Growth [1, 11]: <2.15 Log10
- Average CFU/mL [1, 12]: <140 CFU/mL
- Log10 Growth [1, 12]: <2.15 Log10
- Average CFU/mL [2, 10]: <140 CFU/mL
- Log10 Growth [2, 10]: <2.15 Log10
- Average CFU/mL [2, 11]: <140 CFU/mL
- Log10 Growth [2, 11]: <2.15 Log10
- Average CFU/mL [2, 12]: <140 CFU/mL
- Log10 Growth [2, 12]: <2.15 Log10
- Average CFU/mL [3, 10]: 6.30E + 03 CFU/mL
- Log10 Growth [3, 10]: 3.80 Log10
- Average CFU/mL [3, 11]: 2.15E + 02 CFU/mL
- Log10 Growth [3, 11]: 2.33 Log10
- Average CFU/mL [3, 12]: <140 CFU/mL
- Log10 Growth [3, 12]: <2.15 Log10
- impact of soils on the stability of PFA [4]: no impact
- reduction in B. subtillis spores compared with POAA ([5]; 5 and 10 minutes, lower concentrations than POAA, FIG. 17): increased reduction
- Average CFU/mL [5, 13]: 3.25E+03 CFU/mL
- Log10 Growth [5, 13]: 3.51 Log10
- Log10 Reduction [5, 13]: 2.28 Log10
- Average CFU/mL [5, 14]: 4.50E+01 CFU/mL
- Log10 Growth [5, 14]: 1.65 Log10
- Log10 Reduction [5, 14]: 4.14 Log10
- Average CFU/mL [5, 15]: 3.45E+03 CFU/mL
- Log10 Growth [5, 15]: 3.54 Log10
- Log10 Reduction [5, 15]: 2.26 Log10
- Average CFU/mL [5, 16]: 1.30E+03 CFU/mL
- Log10 Growth [5, 16]: 3.11 Log10
- Log10 Reduction [5, 16]: 2.68 Log10
- Log survivors (CFU/carrier) [6, 17]: <1.00 log10 CFU/carrier
- Log reduction [6, 17]: >5.12
- Log survivors (CFU/carrier) [6, 18]: 1.63 log10 CFU/carrier
- Log reduction [6, 18]: 5.22
- kill compared with peracetic acid ([6]; 40°C, 5 minute, less than half of the dose of peracetic acid): significant better kill than peracetic acid
- Log10 Growth ([7]; 200 ppm PFA pH 5.81, 35°C): <2.18 Log10
- Log10 Reduction ([7]; 200 ppm PFA pH 5.81, 35°C): >3.87 Log10
- Log10 Growth ([7]; 250 ppm PFA pH 5.82, 35°C): <2.18 Log10
- Log10 Reduction ([7]; 250 ppm PFA pH 5.82, 35°C): >3.87 Log10
- Log10 Growth ([7]; 300 ppm PFA pH 5.91, 35°C): <2.18 Log10
- Log10 Reduction ([7]; 300 ppm PFA pH 5.91, 35°C): >3.87 Log10
- Log10 Growth ([7]; 350 ppm PFA pH 5.88, 35°C): <2.18 Log10
- Log10 Reduction ([7]; 350 ppm PFA pH 5.88, 35°C): >3.87 Log10
- Log10 Growth ([8]; 200 ppm PFA pH 5.81, 35°C): <2.18 Log10
- Log10 Reduction ([8]; 200 ppm PFA pH 5.81, 35°C): >3.91 Log10
- Log10 Growth ([8]; 250 ppm PFA pH 5.82, 35°C): <2.18 Log10
- Log10 Reduction ([8]; 250 ppm PFA pH 5.82, 35°C): >3.91 Log10
- Log10 Growth ([8]; 300 ppm PFA pH 5.91, 35°C): <2.18 Log10
- Log10 Reduction ([8]; 300 ppm PFA pH 5.91, 35°C): >3.91 Log10
- Log10 Growth ([8]; 350 ppm PFA pH 5.88, 35°C): <2.18 Log10
- Log10 Reduction ([8]; 350 ppm PFA pH 5.88, 35°C): >3.91 Log10
- anti-biofilm efficacy compared with POAA ([9]; 50 ppm PFA 15 minutes to 3 hours vs 200 ppm POAA 3 hours, FIG. 12): greater anti-biofilm efficacy
- anti-biofilm efficacy compared with POAA ([9]; 3 hours exposure, concentration lower than POAA, FIG. 11): significantly greater anti-biofilm efficacy
- Result (Various pathogens; EN 13624, 450 ppm PFA pH 6-7, Aspergillus brasiliensis ATCC 1604, passing requirement 4 log reduction): PASS
- Result (Various pathogens; EN 13624, 450 ppm PFA pH 6-7, Canidia albicans ATCC 10231, passing requirement 4 log reduction): PASS
- Result (Various pathogens; EN 13704, 450 ppm PFA pH 6-7, Bacillus subtilis ATCC 6633, passing requirement 3 log reduction): PASS
- Result (Various pathogens; EN 13727, 450 ppm PFA pH 6-7, Enterococcus hirae ATCC 10541, passing requirement 5 log reduction): PASS
- Result (Various pathogens; EN 13727, 450 ppm PFA pH 6-7, P. aeruginosa ATCC 15442, passing requirement 5 log reduction): PASS
- Result (Various pathogens; EN 13727, 450 ppm PFA pH 6-7, Staph Aureus ATCC 6538, passing requirement 5 log reduction): PASS
- Result (Various pathogens; pH 6): PASS
